Test results as given in patent publication EP2326172B1, “ANTIFUNGAL AGENTS” (Scynexis, Inc., priority 2008, dated 2010).

Target: T1, glucan synthase (GS) (Candida albicans, UniProt O13428)
T1 construct: Extraction of GS activity from membranes was performed at a protein concentration of 5 mg/mL in extraction buffer; endogenous in cells; host or cells: Candida albicans MY1055 (membrane fraction, detergent extract, product entrapment)
Assay: Glucan synthase inhibition (polymerization assay, 96-well, 3H-UDPG incorporation)
Assay type: biochemical
Conditions: glucan synthase prepared from Candida albicans MY1055; 60 min incubation at 22°C; read-out: Candida Albicans GS IC50 (ng/mL) (converted)
Protocol: The in vitro evaluation of glucan synthase inhibitory activity of compounds was measured in a polymerization assay in 96-well format. Each well contained 100 µL of ^3H-UDPG at 0.5 mM (6000 to 8000 dpm/nmol), 50 mM HEPES pH 7.5 (Sigma), 10% w/v glycerol (Sigma), 1.5 mg/mL bovine serum albumin (Sigma A 9647. Lot 44H0190), 25 mM KF (Fisher), 1 mM EDTA (Gibco ULTRAPURE), 25 µM GTP-γ-S, enzyme sufficient to give 3 to 6 nmoles incorporation during the 60 min incubation at 22°C, and test compound added from wells in 3-fold serial dilutions in 100% DMSO (1 µL/well). The reaction was stopped by the addition of 100 µL of 20% trichloroacetic acid. Plates were chilled for a minimum of 10 min, and precipitated glucan collected by filtration on GF/C plates (Packard UNIFILTER®-96), washed with 5 cycles of water (about 1 mL/well each cycle) using a Packard FILTERMATE HARVESTER. 40 µL/well scintillation fluid (Packard ULTIMA GOLD TM-XR) was added and the sealed plates counted in a WALLAC BETA counter in top-counting mode at an efficiency of approximately 40%.
Stock solutions were stored at 10 mg/mL in DMSO at -20°C. For each new enzyme preparation, the initial titration performed started at 1 mg/mL, which was prepared by making a 10-fold dilution in DMSO (5 µL to 50 µL). 40 µL of this stock was placed in column 12 of a round-bottomed 96-well microtiter plate. 40 µL DMSO was added to columns 1 to 11 in the same row and ten 3-fold serial dilutions performed, by transferring 20 µL from column 12 to column 11 etc., with 4 mixings before each transfer. No test compound was transferred to from column 2 to column 1. Duplicate aliquots of 1 µL of all 12 dilutions were then transferred to the side walls of a 96-well Bioblock 1.1 mL plate (Fisher brand) to create two rows.
Graphs of the primary data were created in PRISM software (the average of two determinations) using PRISM's curve fitting program (sigmoidal dose response non-linear regression). The amount of compound required to inhibit glucan synthase activity by 50% in this assay (IC50 - ng/mL) was calculated.
Routine analysis was performed with glucan synthase (GS) prepared from Candida albicans MY1055 by the following procedure: MY1055 was grown in 10 liters YPD medium (10 g yeast extract, 20 g tryptone, 20 g glucose per liter) with vigorous shaking at 30°C, to early stationary phase. Cells were harvested by centrifugation, the pellet was washed and frozen at -70°C until breakage. Thawed pellets were shaken with an equal volume of breakage buffer (50 mM HEPES pH 7.4, 10% glycerol, 1 mM EDTA, 1 mM PMSF, 1mM DTT) and 4 times their weight of 0.5 mm acid washed glass beads for 2 hours at 4°C. Extent of breakage was assessed visually at 40x magnification. After low speed centrifugation to remove cell debris, the supernatant was centrifuged at 100,000 x g for 60 min. to separate membranes plus ribosomes from cytoplasmic components. Membranes were further washed two additional times with breakage buffer using the same centrifugation conditions and finally suspended in breakage buffer at 25 to 30 mg/mL protein (Biorad) for storage at -70°C. Extraction of GS activity from membranes was performed at a protein concentration of 5 mg/mL in extraction buffer (50mM NaPO4 pH 7.5, 0.1 M KCl, 0.1M Na citrate, 20% glycerol, 5 µM GTP-γ-S, 1mM DTT, 1 mM PMSF, 3 µg/mL pepstatin) plus 0.25% W1 by gentle mixing at 4°C for 60 min, followed by centrifugation at 100,000 x g for 60 min. After centrifugation, clear supernatant was removed from a pellet consisting of a hard layer usually with small amounts of gelatinous unextracted membranes above it.
Trapping was initiated immediately by 5-fold dilution in trapping buffer (50 mM HEPES pH 7.5, 10 mM KF, 1 mM EDTA, 2 mg/mL BSA) plus 2.5 mM UDPG and 10µM GTP-γ-S. After incubation at 25°C for 60 to 90 minutes, glucan was harvested by low speed centrifugation (3,000 x g, 10 min). […]

T1 sequence (O13428 1-1897): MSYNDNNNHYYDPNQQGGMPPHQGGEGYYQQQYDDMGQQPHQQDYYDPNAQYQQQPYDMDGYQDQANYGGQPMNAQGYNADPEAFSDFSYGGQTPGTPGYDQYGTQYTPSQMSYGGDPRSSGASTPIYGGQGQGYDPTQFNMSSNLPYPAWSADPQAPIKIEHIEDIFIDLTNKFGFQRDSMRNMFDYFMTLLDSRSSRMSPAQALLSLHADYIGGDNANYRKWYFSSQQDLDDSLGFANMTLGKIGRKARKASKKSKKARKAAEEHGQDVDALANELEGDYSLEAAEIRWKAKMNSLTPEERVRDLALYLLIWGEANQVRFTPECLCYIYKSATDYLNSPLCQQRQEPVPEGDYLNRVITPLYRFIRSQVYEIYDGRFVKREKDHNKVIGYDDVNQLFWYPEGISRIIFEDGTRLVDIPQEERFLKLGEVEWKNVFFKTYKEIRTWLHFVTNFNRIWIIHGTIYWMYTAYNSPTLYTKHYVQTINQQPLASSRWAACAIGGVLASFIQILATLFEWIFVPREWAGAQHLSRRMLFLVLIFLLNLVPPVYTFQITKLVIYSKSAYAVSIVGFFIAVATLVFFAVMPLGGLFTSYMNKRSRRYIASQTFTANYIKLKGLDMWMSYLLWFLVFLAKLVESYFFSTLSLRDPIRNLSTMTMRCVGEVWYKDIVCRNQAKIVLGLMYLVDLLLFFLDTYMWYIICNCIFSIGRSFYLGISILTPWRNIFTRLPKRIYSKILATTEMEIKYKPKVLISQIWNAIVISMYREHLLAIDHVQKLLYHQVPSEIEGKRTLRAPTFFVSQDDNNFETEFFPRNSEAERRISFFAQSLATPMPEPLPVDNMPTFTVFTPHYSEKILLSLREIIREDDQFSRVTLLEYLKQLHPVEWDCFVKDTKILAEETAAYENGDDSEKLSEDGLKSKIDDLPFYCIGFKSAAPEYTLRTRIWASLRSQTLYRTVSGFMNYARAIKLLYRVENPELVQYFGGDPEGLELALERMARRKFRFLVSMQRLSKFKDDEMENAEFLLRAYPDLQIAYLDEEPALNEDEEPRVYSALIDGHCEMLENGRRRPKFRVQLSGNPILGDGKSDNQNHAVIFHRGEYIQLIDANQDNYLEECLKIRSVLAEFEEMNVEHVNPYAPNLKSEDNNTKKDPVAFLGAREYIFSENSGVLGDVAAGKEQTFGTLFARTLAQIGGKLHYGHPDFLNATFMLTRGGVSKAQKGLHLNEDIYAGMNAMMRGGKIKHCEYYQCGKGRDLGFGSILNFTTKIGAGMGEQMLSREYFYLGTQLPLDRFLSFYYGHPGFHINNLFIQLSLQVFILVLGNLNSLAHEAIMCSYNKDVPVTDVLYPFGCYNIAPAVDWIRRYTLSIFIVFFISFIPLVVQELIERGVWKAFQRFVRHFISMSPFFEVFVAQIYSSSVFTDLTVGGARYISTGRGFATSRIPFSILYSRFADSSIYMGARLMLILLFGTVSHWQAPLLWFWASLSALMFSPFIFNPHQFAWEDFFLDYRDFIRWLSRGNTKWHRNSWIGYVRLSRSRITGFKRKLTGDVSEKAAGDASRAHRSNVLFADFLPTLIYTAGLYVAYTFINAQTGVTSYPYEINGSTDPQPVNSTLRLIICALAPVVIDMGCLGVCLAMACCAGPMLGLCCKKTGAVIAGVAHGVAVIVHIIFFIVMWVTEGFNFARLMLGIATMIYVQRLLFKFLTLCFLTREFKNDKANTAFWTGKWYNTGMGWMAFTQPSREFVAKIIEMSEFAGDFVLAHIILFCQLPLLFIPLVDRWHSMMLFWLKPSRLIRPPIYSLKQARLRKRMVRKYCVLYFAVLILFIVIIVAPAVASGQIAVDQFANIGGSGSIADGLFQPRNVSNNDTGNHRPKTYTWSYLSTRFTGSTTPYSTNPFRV
T1 sequence (O42825 1-195 partner limits assumed): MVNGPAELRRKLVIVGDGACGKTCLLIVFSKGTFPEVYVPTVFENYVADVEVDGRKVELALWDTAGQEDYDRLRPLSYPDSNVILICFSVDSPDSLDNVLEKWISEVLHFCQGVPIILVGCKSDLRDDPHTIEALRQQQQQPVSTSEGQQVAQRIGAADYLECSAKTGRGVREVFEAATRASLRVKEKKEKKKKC

Compound | IC50
CC(C)[C@@H](C)[C@@]1(C)CC[C@]2(C)[C@H]3CC[C@@H]4[C@@]5(COC[C@@]4(C)[C@@H](OC[C@](C)(N)C(C)C)[C@H](n4ncnc4-c4cccnc4)C5)C3=CC[C@@]2(C)[C@@H]1C(=O)O [Example 182, (1S,4aR,6aS,7R,8R,10aR,10bR,12aR,14R,15R)-15-[[(2R)-2-amino-2,3-dimethylbutyl]oxy]-8-[(1R)-1,2-dimethylpropyl]-14-[5-(3-pyridinyl)-1H-1,2,4-triazol-1-yl]-1,6,6a,7,8,9,10,10a,10b,11,12,12a-dodecahydro-1,6a,8,10a-tetramethyl-4H-1,4a-propano-2H-phenanthro[1,2-c]pyran-7-carboxylic acid] | 5.59 nM
CC(C)[C@@H](C)[C@@]1(C)CC[C@]2(C)[C@H]3CC[C@@H]4[C@@]5(COC[C@@]4(C)[C@@H](OC[C@](C)(N)C(C)C)[C@H](n4ncnc4-c4ccncn4)C5)C3=CC[C@@]2(C)[C@@H]1C(=O)O [Example 190, (1S,4aR,6aS,7R,8R,10aR,10bR,12aR,14R,15R)-15-[[(2R)-2-amino-2,3-dimethylbutyl]oxy]-8-[(1R)-1,2-dimethylpropyl]-14-[5-(4-pyrimidinyl)-1H-1,2,4-triazol-1-yl]-1,6,6a,7,8,9,10,10a,10b,11,12,12a-dodecahydro-1,6a,8,10a-tetramethyl-4H-1,4a-propano-2H-phenanthro[1,2-c]pyran-7-carboxylic acid] | 4.18 nM
CC(C)[C@@H](C)[C@@]1(C)CC[C@]2(C)[C@H]3CC[C@@H]4[C@@]5(COC[C@@]4(C)[C@@H](OC[C@](C)(N)C(C)(C)C)[C@H](n4ncnc4-c4ccnnc4)C5)C3=CC[C@@]2(C)[C@@H]1C(=O)O [Example 202, (1S,4aR,6aS,7R,8R,10aR,10bR,12aR,14R,15R)-15-[[(2R)-2-amino-2,3,3-trimethylbutyl]oxy]-8-[(1R)-1,2-dimethylpropyl]-14-[5-(4-pyridazinyl)-1H-1,2,4-triazol-1-yl]-1,6,6a,7,8,9,10,10a,10b,11,12,12a-dodecahydro-1,6a,8,10a-tetramethyl-4H-1,4a-propano-2H-phenanthro[1,2-c]pyran-7-carboxylic acid] | 0.274 nM
CC(C)[C@@H](C)[C@@]1(C)CC[C@]2(C)[C@H]3CC[C@@H]4[C@@]5(COC[C@@]4(C)[C@@H](OC[C@](C)(N)C(C)(C)C)[C@H](n4ncnc4-c4ccncc4F)C5)C3=CC[C@@]2(C)[C@@H]1C(=O)O [Example 208, (1S,4aR,6aS,7R,8R,10aR,10bR,12aR,14R,15R)-15-[[(2R)-2-amino-2,3,3-trimethylbutyl]oxy]-8-[(1R)-1,2-dimethylpropyl]-14-[5-(3-fluoro-4-pyridinyl)-1H-1,2,4-triazol-1-yl]-1,6,6a,7,8,9,10,10a,10b,11,12,12a-dodecahydro-1,6a,8,10a-tetramethyl-4H-1,4a-propano-2H-phenanthro[1,2-c]pyran-7-carboxylic acid] | 0.936 nM
CC(C)[C@@H](C)[C@@]1(C)CC[C@]2(C)[C@H]3CC[C@@H]4[C@@]5(COC[C@@]4(C)[C@@H](OCC4(N)CCOCC4)[C@H](n4ncnc4-c4ccncn4)C5)C3=CC[C@@]2(C)[C@@H]1C(=O)O [Example 256, (1S,4aR,6aS,7R,8R,10aR,10bR,12aR,14R,15R)-15-[(4-aminotetrahydro-2H-pyran-4-yl)methoxy]-8-[(1R)-1,2-dimethylpropyl]-14-[5-(4-pyrimidinyl)-1H-1,2,4-triazol-1-yl]-1,6,6a,7,8,9,10,10a,10b,11,12,12a-dodecahydro-1,6a,8,10a-tetramethyl-4H-1,4a-propano-2H-phenanthro[1,2-c]pyran-7-carboxylic acid] | 6.84 nM
CC(C)[C@@H](C)[C@@]1(C)CC[C@]2(C)[C@H]3CC[C@@H]4[C@@]5(COC[C@@]4(C)[C@@H](OC[C@](C)(N)C(C)(C)C)[C@H](n4ncnc4-c4ccc[n+]([O-])c4)C5)C3=CC[C@@]2(C)[C@@H]1C(=O)O [Example 261, (1S,4aR,6aS,7R,8R,10aR,10bR,12aR,14R,15R)-15-[[(2R)-2-amino-2,3,3-trimethylbutyl]oxy]-8-[(1R)-1,2-dimethylpropyl]-14-[5-(1-oxido-3-pyridinyl)-1H-1,2,4-triazol-1-yl]-1,6,6a,7,8,9,10,10a,10b,11,12,12a-dodecahydro-1,6a,8,10a-tetramethyl-4H-1,4a-propano-2H-phenanthro[1,2-c]pyran-7-carboxylic acid] | 2.68 nM
